What was measured:
Experiment in all cases: Zone of inhibition screen, 96 well agar array format
Assay type in all cases: cell-based
Set-up in all cases: scale not given here
Settings in all cases: zone of inhibition relative to 1 mg/ml p-chlorobiphenylvancomycin
[1] = tested on: E. faecalis (CL 4877)
Procedure, shortened: (§1)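 Antibacterial testing on a 96-well agar array; each compound screened separately.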

[2] = tested on: S. aureus (ATCC 29213)
Procedure, shortened: as §1

[3] = tested on: S. epidermidis (ATCC 12228)
Procedure, shortened: as §1

Compound	zone score, E. faecalis CL 4877 [1]	zone score, S. aureus ATCC 29213 [2]	zone score, S. epidermidis ATCC 12228 [3]
CC(NC(=O)CNC(=O)CNC(=O)OCc1ccccc1)C(=O)NC1C(=O)NC(CC(N)=O)C(=O)NC2C(=O)NC3C(=O)NC(C(=O)NC(C(=O)O)c4cc(O)cc(O)c4-c4cc3ccc4O)C(O)c3ccc(c(Cl)c3)Oc3cc2cc(c3OC2OC(CO)C(O)C(O)C2OC2CC(C)(NCc3ccc(-c4ccc(Cl)cc4)cc3)C(O)C(C)O2)Oc2ccc(cc2Cl)C1O (stereo not drawn) [Compound 213]	2	2	2
CC1OC(OC2C(Oc3c4cc5cc3Oc3ccc(cc3Cl)C(O)C3NC(=O)C(NC(=O)C5NC(=O)C(CC(N)=O)NC(=O)C(NC(=O)C5CSC(=O)N5)C(O)c5ccc(c(Cl)c5)O4)c4ccc(O)c(c4)-c4c(O)cc(O)cc4C(C(=O)O)NC3=O)OC(CO)C(O)C2O)CC(C)(NCc2ccc(-c3ccc(Cl)cc3)cc2)C1O (stereo not drawn) [Compound 224]	2	2	2
CC1OC(OC2C(Oc3c4cc5cc3Oc3ccc(cc3Cl)C(O)C3NC(=O)C(NC(=O)C5NC(=O)C(CC(N)=O)NC(=O)C(NC(=O)c5cccn5C)C(O)c5ccc(c(Cl)c5)O4)c4ccc(O)c(c4)-c4c(O)cc(O)cc4C(C(=O)O)NC3=O)OC(CO)C(O)C2O)CC(C)(NCc2ccc(-c3ccc(Cl)cc3)cc2)C1O (stereo not drawn) [Compound 229]	2	2	2
CC1OC(OC2C(Oc3c4cc5cc3Oc3ccc(cc3Cl)C(O)C3NC(=O)C(NC(=O)C5NC(=O)C(CC(N)=O)NC(=O)C(NC(=O)Cc5ccc(Cl)cc5Cl)C(O)c5ccc(c(Cl)c5)O4)c4ccc(O)c(c4)-c4c(O)cc(O)cc4C(C(=O)O)NC3=O)OC(CO)C(O)C2O)CC(C)(NCc2ccc(-c3ccc(Cl)cc3)cc2)C1O (stereo not drawn) [Compound 234]	2	2	2
COc1ccc(CCC(=O)NC2C(=O)NC(CC(N)=O)C(=O)NC3C(=O)NC4C(=O)NC(C(=O)NC(C(=O)O)c5cc(O)cc(O)c5-c5cc4ccc5O)C(O)c4ccc(c(Cl)c4)Oc4cc3cc(c4OC3OC(CO)C(O)C(O)C3OC3CC(C)(NCc4ccc(-c5ccc(Cl)cc5)cc4)C(O)C(C)O3)Oc3ccc(cc3Cl)C2O)cc1OC (stereo not drawn) [Compound 245]	2	2	2
COc1ccc(C(=O)NC2C(=O)NC(CC(N)=O)C(=O)NC3C(=O)NC4C(=O)NC(C(=O)NC(C(=O)O)c5cc(O)cc(O)c5-c5cc4ccc5O)C(O)c4ccc(c(Cl)c4)Oc4cc3cc(c4OC3OC(CO)C(O)C(O)C3OC3CC(C)(NCc4ccc(-c5ccc(Cl)cc5)cc4)C(O)C(C)O3)Oc3ccc(cc3Cl)C2O)cc1OC (stereo not drawn) [Compound 253]	2	2	2
CCOCCC(=O)N[C@H]1C(=O)N[C@@H](CC(N)=O)C(=O)N[C@H]2C(=O)N[C@H]3C(=O)N[C@H](C(=O)N[C@@H](C(=O)O)c4cc(O)cc(O)c4-c4cc3ccc4O)[C@H](O)c3ccc(c(Cl)c3)Oc3cc2cc(c3O[C@@H]2O[C@H](CO)[C@@H](O)[C@H](O)[C@H]2O[C@@H]2C[C@@](C)(NCc3ccc(-c4ccc(Cl)cc4)cc3)[C@@H](O)[C@@H](C)O2)Oc2ccc(cc2Cl)[C@H]1O [Compound 258]	2	2	2
CC1OC(OC2C(Oc3c4cc5cc3Oc3ccc(cc3Cl)C(O)C3NC(=O)C(NC(=O)C5NC(=O)C(CC(N)=O)NC(=O)C(NC(=O)c5cccc(O)c5)C(O)c5ccc(c(Cl)c5)O4)c4ccc(O)c(c4)-c4c(O)cc(O)cc4C(C(=O)O)NC3=O)OC(CO)C(O)C2O)CC(C)(NCc2ccc(-c3ccc(Cl)cc3)cc2)C1O (stereo not drawn) [Compound 261]	2	2	2
CC(O)CC(=O)N[C@H]1C(=O)N[C@@H](CC(N)=O)C(=O)N[C@H]2C(=O)N[C@H]3C(=O)N[C@H](C(=O)N[C@@H](C(=O)O)c4cc(O)cc(O)c4-c4cc3ccc4O)[C@H](O)c3ccc(c(Cl)c3)Oc3cc2cc(c3O[C@@H]2O[C@H](CO)[C@@H](O)[C@H](O)[C@H]2O[C@@H]2C[C@@](C)(NCc3ccc(-c4ccc(Cl)cc4)cc3)[C@@H](O)[C@@H](C)O2)Oc2ccc(cc2Cl)[C@H]1O (stereo partly drawn) [Compound 262]	2	2	2
CC1OC(OC2C(Oc3c4cc5cc3Oc3ccc(cc3Cl)C(O)C3NC(=O)C(NC(=O)C5NC(=O)C(CC(N)=O)NC(=O)C(NC(=O)c5ccc(S(C)(=O)=O)cc5)C(O)c5ccc(c(Cl)c5)O4)c4ccc(O)c(c4)-c4c(O)cc(O)cc4C(C(=O)O)NC3=O)OC(CO)C(O)C2O)CC(C)(NCc2ccc(-c3ccc(Cl)cc3)cc2)C1O (stereo not drawn) [Compound 264]	0	2	2
CC(=O)Oc1ccc(C(=O)NC2C(=O)NC(CC(N)=O)C(=O)NC3C(=O)NC4C(=O)NC(C(=O)NC(C(=O)O)c5cc(O)cc(O)c5-c5cc4ccc5O)C(O)c4ccc(c(Cl)c4)Oc4cc3cc(c4OC3OC(CO)C(O)C(O)C3OC3CC(C)(NCc4ccc(-c5ccc(Cl)cc5)cc4)C(O)C(C)O3)Oc3ccc(cc3Cl)C2O)cc1 (stereo not drawn) [Compound 266]	2	2	2
CC1OC(OC2C(Oc3c4cc5cc3Oc3ccc(cc3Cl)C(O)C3NC(=O)C(NC(=O)C5NC(=O)C(CC(N)=O)NC(=O)C(NC(=O)c5ccc(S(N)(=O)=O)cc5)C(O)c5ccc(c(Cl)c5)O4)c4ccc(O)c(c4)-c4c(O)cc(O)cc4C(C(=O)O)NC3=O)OC(CO)C(O)C2O)CC(C)(NCc2ccc(-c3ccc(Cl)cc3)cc2)C1O (stereo not drawn) [Compound 269]	2	2	2
CC1OC(OC2C(Oc3c4cc5cc3Oc3ccc(cc3Cl)C(O)C3NC(=O)C(NC(=O)C5NC(=O)C(CC(N)=O)NC(=O)C(NC(=O)c5ccc(F)cc5)C(O)c5ccc(c(Cl)c5)O4)c4ccc(O)c(c4)-c4c(O)cc(O)cc4C(C(=O)O)NC3=O)OC(CO)C(O)C2O)CC(C)(NCc2ccc(-c3ccc(Cl)cc3)cc2)C1O (stereo not drawn) [Compound 270]	2	2	2
CC1OC(OC2C(Oc3c4cc5cc3Oc3ccc(cc3Cl)C(O)C3NC(=O)C(NC(=O)C5NC(=O)C(CC(N)=O)NC(=O)C(NC(=O)c5c[nH]cn5)C(O)c5ccc(c(Cl)c5)O4)c4ccc(O)c(c4)-c4c(O)cc(O)cc4C(C(=O)O)NC3=O)OC(CO)C(O)C2O)CC(C)(NCc2ccc(-c3ccc(Cl)cc3)cc2)C1O (stereo not drawn) [Compound 272]	2	2	2
CC1OC(OC2C(Oc3c4cc5cc3Oc3ccc(cc3Cl)C(O)C3NC(=O)C(NC(=O)C5NC(=O)C(CC(N)=O)NC(=O)C(NC(=O)c5ccc(N)cc5O)C(O)c5ccc(c(Cl)c5)O4)c4ccc(O)c(c4)-c4c(O)cc(O)cc4C(C(=O)O)NC3=O)OC(CO)C(O)C2O)CC(C)(NCc2ccc(-c3ccc(Cl)cc3)cc2)C1O (stereo not drawn) [Compound 274]	2	2	2
Cc1oncc1C(=O)NC1C(=O)NC(CC(N)=O)C(=O)NC2C(=O)NC3C(=O)NC(C(=O)NC(C(=O)O)c4cc(O)cc(O)c4-c4cc3ccc4O)C(O)c3ccc(c(Cl)c3)Oc3cc2cc(c3OC2OC(CO)C(O)C(O)C2OC2CC(C)(NCc3ccc(-c4ccc(Cl)cc4)cc3)C(O)C(C)O2)Oc2ccc(cc2Cl)C1O (stereo not drawn) [Compound 275]	2	2	2
CC1OC(OC2C(Oc3c4cc5cc3Oc3ccc(cc3Cl)C(O)C3NC(=O)C(NC(=O)C5NC(=O)C(CC(N)=O)NC(=O)C(NC(=O)c5ccc6[nH]nnc6c5)C(O)c5ccc(c(Cl)c5)O4)c4ccc(O)c(c4)-c4c(O)cc(O)cc4C(C(=O)O)NC3=O)OC(CO)C(O)C2O)CC(C)(NCc2ccc(-c3ccc(Cl)cc3)cc2)C1O (stereo not drawn) [Compound 281]	2	2	2
CC1OC(OC2C(Oc3c4cc5cc3Oc3ccc(cc3Cl)C(O)C3NC(=O)C(NC(=O)C5NC(=O)C(CC(N)=O)NC(=O)C(NC(=O)C(F)F)C(O)c5ccc(c(Cl)c5)O4)c4ccc(O)c(c4)-c4c(O)cc(O)cc4C(C(=O)O)NC3=O)OC(CO)C(O)C2O)CC(C)(NCc2ccc(-c3ccc(Cl)cc3)cc2)C1O (stereo not drawn) [Compound 285]	2	2	2
CC1OC(OC2C(Oc3c4cc5cc3Oc3ccc(cc3Cl)C(O)C(NC(=O)C(F)(F)C(F)(F)C(F)(F)F)C(=O)NC(CC(N)=O)C(=O)NC5C(=O)NC3C(=O)NC(C(=O)NC(C(=O)O)c5cc(O)cc(O)c5-c5cc3ccc5O)C(O)c3ccc(c(Cl)c3)O4)OC(CO)C(O)C2O)CC(C)(NCc2ccc(-c3ccc(Cl)cc3)cc2)C1O (stereo not drawn) [Compound 290]	2	2	2
CC1OC(OC2C(Oc3c4cc5cc3Oc3ccc(cc3Cl)C(O)C3NC(=O)C(NC(=O)C5NC(=O)C(CC(N)=O)NC(=O)C(NC(=O)c5cc6ccccc6[nH]5)C(O)c5ccc(c(Cl)c5)O4)c4ccc(O)c(c4)-c4c(O)cc(O)cc4C(C(=O)O)NC3=O)OC(CO)C(O)C2O)CC(C)(NCc2ccc(-c3ccc(Cl)cc3)cc2)C1O (stereo not drawn) [Compound 291]	2	2	2
C=C(CC(=O)OC)C(=O)NC1C(=O)NC(CC(N)=O)C(=O)NC2C(=O)NC3C(=O)NC(C(=O)NC(C(=O)O)c4cc(O)cc(O)c4-c4cc3ccc4O)C(O)c3ccc(c(Cl)c3)Oc3cc2cc(c3OC2OC(CO)C(O)C(O)C2OC2CC(C)(NCc3ccc(-c4ccc(Cl)cc4)cc3)C(O)C(C)O2)Oc2ccc(cc2Cl)C1O (stereo not drawn) [Compound 293]	2	2	2

Reference: patent US6518243B1, “Desleucyl glycopeptide antibiotics and methods of making same” (Trustees of Princeton University, priority 1999, dated 2003)
